Test results taken from US20130190407A1, “CALCIUM RECEPTOR-ACTIVE MOLECULES” (NPS Pharmaceuticals, Inc., priority 1991, published 2013).

Assays:
Type in all cases: cell-based
[1] = molecular target: T1, bovine parathyroid cell calcium receptor (Bos taurus, UniProt P35384); experiment: Cl- current in Xenopus oocytes injected with BoPCaR 1; details: 1 mM extracellular Ca2+
T1 construct: isolation of a single clone (BoPCaR 1) with a cDNA insert of 5.3 kb; expressed in transfected cells
T1 sequence (P35384 20-1085): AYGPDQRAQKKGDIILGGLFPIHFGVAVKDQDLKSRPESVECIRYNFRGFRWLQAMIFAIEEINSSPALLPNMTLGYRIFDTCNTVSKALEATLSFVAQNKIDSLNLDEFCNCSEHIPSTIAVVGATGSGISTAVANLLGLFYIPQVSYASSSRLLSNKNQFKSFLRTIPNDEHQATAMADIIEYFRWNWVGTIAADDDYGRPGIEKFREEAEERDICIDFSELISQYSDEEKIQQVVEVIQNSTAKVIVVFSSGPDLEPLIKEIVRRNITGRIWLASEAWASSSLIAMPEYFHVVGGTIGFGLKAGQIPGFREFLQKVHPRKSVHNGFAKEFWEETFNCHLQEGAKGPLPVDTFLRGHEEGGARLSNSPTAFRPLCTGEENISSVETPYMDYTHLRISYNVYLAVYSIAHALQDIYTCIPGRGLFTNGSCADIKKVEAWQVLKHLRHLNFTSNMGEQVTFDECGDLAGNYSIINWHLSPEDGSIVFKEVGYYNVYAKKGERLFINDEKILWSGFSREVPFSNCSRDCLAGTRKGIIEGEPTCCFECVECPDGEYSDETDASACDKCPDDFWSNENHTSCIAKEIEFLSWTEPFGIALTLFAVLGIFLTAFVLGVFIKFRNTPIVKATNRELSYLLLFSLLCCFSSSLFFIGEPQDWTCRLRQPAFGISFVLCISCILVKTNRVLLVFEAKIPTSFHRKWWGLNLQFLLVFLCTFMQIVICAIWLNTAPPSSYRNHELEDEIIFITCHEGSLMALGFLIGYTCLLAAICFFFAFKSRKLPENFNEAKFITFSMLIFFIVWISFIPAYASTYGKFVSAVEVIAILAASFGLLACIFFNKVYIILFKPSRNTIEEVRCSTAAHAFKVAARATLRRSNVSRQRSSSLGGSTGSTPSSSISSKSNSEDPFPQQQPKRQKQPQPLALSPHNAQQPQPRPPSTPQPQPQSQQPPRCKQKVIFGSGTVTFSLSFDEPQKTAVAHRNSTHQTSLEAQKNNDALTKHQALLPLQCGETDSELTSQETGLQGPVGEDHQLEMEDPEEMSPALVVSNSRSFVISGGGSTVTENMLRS
Description: Several pharmacological and biochemical criteria were used to identify this clone as encoding a bona fide bovine parathyroid Ca^2+ receptor. […] These responses increased markedly over a period of one to four days after injection of the eggs with cRNA prepared from the BoPCaR 1 cDNA. Furthermore, the ranges of the concentrations of the two cations eliciting this response were very similar to those shown previously to act on bovine parathyroid cells in vitro.
Xenopus oocytes were injected with BoPCaR 1, the 5.3 Kb cDNA encoding a bovine parathyroid cell calcium receptor as described in Example 25. After two to three days, Cl^− currents were examined in the oocytes using a two-electrode voltage clamp.
Xenopus oocytes were injected with BoPCaR 1 as described in Example 25. After two to three days, Cl^− currents were examined in the oocytes using two electrode voltage clamp.

[2] = molecular target: T2, human parathyroid cell calcium receptor (Homo sapiens, UniProt P41180, E1011Q/Q926R); experiment: Cl- current in Xenopus oocytes injected with pHuPCaR 5.2; details: 3 to 30 μM; 0.3 mM extracellular Ca2+
T2 construct: appear to be full-length clones corresponding to the 5 Kb mRNA; expressed in transfected cells; host or cells: Xenopus laevis oocytes injected with pHuPCaR 5.2
T2 sequence (P41180 20-1088 isoform P41180-2 Q936R/E1021Q): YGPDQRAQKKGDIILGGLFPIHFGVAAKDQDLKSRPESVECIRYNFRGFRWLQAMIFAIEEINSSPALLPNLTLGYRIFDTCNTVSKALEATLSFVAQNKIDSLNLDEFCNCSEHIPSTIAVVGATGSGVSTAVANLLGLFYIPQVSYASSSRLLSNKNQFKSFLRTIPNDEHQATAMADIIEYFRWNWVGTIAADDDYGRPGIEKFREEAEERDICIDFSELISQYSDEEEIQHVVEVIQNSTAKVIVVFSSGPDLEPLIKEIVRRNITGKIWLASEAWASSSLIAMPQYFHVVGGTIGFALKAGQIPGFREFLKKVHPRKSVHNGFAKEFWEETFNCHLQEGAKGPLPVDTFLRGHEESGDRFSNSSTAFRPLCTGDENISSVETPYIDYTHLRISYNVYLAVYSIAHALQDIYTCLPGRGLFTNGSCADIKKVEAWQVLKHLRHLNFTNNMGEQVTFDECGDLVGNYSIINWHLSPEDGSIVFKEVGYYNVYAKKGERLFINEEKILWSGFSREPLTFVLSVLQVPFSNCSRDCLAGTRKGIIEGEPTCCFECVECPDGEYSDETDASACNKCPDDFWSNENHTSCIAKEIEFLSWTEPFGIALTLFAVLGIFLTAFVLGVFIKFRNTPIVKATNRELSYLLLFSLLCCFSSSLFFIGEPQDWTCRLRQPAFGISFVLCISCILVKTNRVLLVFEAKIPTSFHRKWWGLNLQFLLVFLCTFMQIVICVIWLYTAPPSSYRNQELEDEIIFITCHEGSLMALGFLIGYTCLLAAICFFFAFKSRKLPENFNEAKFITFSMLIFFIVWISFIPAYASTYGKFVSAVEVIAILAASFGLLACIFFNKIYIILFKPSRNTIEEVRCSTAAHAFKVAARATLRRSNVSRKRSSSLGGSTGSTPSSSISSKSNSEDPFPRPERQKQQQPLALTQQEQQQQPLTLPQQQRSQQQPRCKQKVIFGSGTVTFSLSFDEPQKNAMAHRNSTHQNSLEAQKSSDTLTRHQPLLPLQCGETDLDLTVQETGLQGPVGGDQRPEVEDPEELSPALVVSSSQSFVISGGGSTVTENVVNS
Description: Xenopus oocytes were injected with pHuPCaR 5.2, the 5.2 Kb cDNA encoding a parathyroid cell calcium receptor derived from a human parathyroid cell adenoma. (See Example 27.) After two to three days, Cl^− currents were measured in the oocytes using a two-electrode voltage clamp.

[3] = molecular target: T3, osteoclast calcium receptor (Rattus norvegicus, UniProt P48442); experiment: [Ca2+]i (indo-1) in single rat osteoclasts; details: Table 6; rat osteoclasts, indo-1
T3 sequence (P48442 20-1079): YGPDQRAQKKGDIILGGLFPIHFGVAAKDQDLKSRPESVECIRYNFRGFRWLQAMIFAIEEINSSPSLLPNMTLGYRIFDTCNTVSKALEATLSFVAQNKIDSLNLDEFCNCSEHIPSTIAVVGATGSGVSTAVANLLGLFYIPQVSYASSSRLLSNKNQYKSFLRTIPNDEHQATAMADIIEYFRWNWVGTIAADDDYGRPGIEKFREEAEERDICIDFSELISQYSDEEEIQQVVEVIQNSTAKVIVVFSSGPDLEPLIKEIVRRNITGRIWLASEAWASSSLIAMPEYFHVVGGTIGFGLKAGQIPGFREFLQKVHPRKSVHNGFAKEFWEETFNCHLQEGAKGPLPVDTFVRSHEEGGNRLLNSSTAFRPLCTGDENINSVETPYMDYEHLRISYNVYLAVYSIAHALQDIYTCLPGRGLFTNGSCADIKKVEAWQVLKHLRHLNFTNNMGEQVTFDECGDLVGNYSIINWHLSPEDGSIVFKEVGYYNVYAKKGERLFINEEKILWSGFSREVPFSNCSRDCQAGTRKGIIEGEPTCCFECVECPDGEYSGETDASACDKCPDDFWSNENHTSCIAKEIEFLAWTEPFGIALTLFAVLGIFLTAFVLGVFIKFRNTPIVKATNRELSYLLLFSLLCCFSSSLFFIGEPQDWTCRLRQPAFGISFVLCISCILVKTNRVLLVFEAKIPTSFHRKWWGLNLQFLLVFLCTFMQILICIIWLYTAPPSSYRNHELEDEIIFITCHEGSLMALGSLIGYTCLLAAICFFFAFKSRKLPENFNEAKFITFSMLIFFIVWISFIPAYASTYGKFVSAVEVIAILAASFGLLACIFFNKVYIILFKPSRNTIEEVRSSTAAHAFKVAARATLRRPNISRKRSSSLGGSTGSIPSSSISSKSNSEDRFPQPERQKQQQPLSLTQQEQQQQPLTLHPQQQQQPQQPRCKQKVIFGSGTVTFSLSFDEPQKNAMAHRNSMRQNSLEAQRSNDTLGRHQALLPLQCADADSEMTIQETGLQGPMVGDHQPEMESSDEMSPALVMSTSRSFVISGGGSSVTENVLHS

[4] = test system: Bovine parathyroid cells
Description: This section describes measuring cyclic AMP levels. Cells were incubated as above for PTH secretion studies and at the end of the incubation, a 0.15-ml sample was taken and transferred to 0.85 ml of hot (70° C.) water and heated at this temperature for 5-10 minutes. The tubes were subsequently frozen and thawed several times and the cellular debris sedimented by centrifugation. Portions of the supernatant were acetylated and cyclic AMP concentrations determined by radioimmunoassay.
Bovine parathyroid cells were cultured for 16 hours with or without 100 ng/ml pertussis toxin. […] Each value is the mean±SEM of three experiments.

[5] = test system: Bovine parathyroid cells; experiment: Inositol phosphate formation in bovine parathyroid cells
Description: After 30 seconds, the reaction was terminated by the addition of CHCl3:MeOH:HCl and IP1 (circles) and IP3 (triangles) separated by anion exchange chromatography. Each point is the mean of 2 experiments, each performed in triplicate.
This section describes procedures measuring inositol phosphate formation. Membrane phospholipids were labeled by incubating parathyroid cells with 4 μCi/ml ^3H-myo-inositol for 20-24 hours. Cells were then washed and resuspended in PCB containing 0.5 mM CaCl2 and 0.1% BSA. Incubations were performed in microfuge tubes in the absence or presence of various concentrations of organic polycation for different times. Reactions were terminated by the addition of 1 ml chloroform-methanol-12 N HCl (200:100:1; v/v/v). Aqueous phytic acid hydrolysate (200 μl; 25 μg phosphate/tube). The tubes were centrifuged and 600 μl of the aqueous phase was diluted into 10 ml water.
Inositol phosphates were separated by ion-exchange chromatography using AG1-X8 in either the chloride- or formate-form. When only IP3 levels were to be determined, the chloride-form was used, whereas the formate form was used to resolve the major inositol phosphates (IP3, IP2, and IP1). […] The last eluate was diluted and counted. […] The eluted samples from the formate columns were rotary evaporated, the residues brought up in cocktail, and counted.

[6] = test system: Bovine parathyroid cells; experiment: PTH secretion from bovine parathyroid cells; details: concentrations that mobilize intracellular Ca2+
Description: PTH secretion was measured by first suspending cells in PCB containing 0.5 mM CaCl2 and 0.1% BSA.
Counting of samples and data reduction were performed on a Packard Cobra 5005 gamma counter.

| Molecule | Cl- current [1] | Cl- current [2] | EC50 [3] | cyclic AMP (% of control), control [4] | formation of IP3 [5] | PTH secretion [6] |
| --- | --- | --- | --- | --- | --- | --- |
| NCCCNCCCCNCCCNCCCNCCCNC(=O)Cc1c[nH]c2ccccc12 [NPS 019] | oscillatory increases in the Cl^− current | evoked increases in the Cl^− current | > 300 µM |  |  |  |
| protamine |  |  |  | 20 ± 4 % of control | rapid (within 30 seconds) increase in the formation of IP3 | inhibited PTH secretion to the same extent as extracellular Ca^2+ |
